Laboratory results: ChEMBL document CHEMBL3112584, “Urokinase-type plasminogen activator expression and Rac1/WAVE-2/Arp2/3 pathway are blocked by pterostilbene to suppress cell migration and invasion in MDA-MB-231 cells” (Bioorg Med Chem Lett, 2014)
Activity calls are given as the source filed them. No cut-off for these calls is given here.

Key:
[1] = Cytotoxicity against human MDA-MB-231 cells assessed as cell viability at 40 uM after 24 hrs by MTT assay relative to control; format: cell-based; details: read-out: Activity
MDA-MB-231 [2] = assay: Inhibition of cell migration in human MDA-MB-231 reduction of cell assessed as cells migrated into scratched area at 5 uM after 24 hrs by wound healing assay; format: functional; details: MDA-MB-231, 24 h
MDA-MB-231 [3] = assay: Down-regulation of uPA mRNA expression in human MDA-MB-231 cells after 24 hrs by RT-PCR analysis; format: functional, cell-based
MDA-MB-231 [4] = assay: Inhibition of cell migration in human MDA-MB-231 cells reduction of cell assessed as cells migrated into scratched area at 2 uM after 24 hrs by wound healing assay; format: functional; details: MDA-MB-231, 24 h
[5] = biological target: Ras-related C3 botulinum toxin substrate 1 (Homo sapiens) (UniProt P63000); assay: Inhibition of Rac1-mediated WAVE-2/Arp2/3 expression in human MDA-MB-231 cells after […] by Western blotting analysis; format: cell-based
MDA-MB-231 [6] = assay: Inhibition of NF-kappaB activation in human MDA-MB-231 cells after 24 hrs by luciferase assay; format: cell-based
MDA-MB-231 [7] = assay: Cytotoxicity against human MDA-MB-231 cells assessed as cell viability up to 10 uM after 24 hrs by MTT assay relative to control; format: cell-based; details: mda-mb-231, 24 h
MDA-MB-231 [8] = assay: Antiinvasion activity in human MDA-MB-231 cells reduction of cell assessed as inhibition of FBS-induced cell invaded to lower surface at 5 uM after 24 hrs; format: functional; details: MDA-MB-231, 24 h
[9] = biological target: Ras-related C3 botulinum toxin substrate 1 (Homo sapiens) (UniProt P63000); assay: Inhibition of Rac1 in human MDA-MB-231 cells at 5 uM after 30 mins by G-LISA activity assay; format: cell-based
MDA-MB-231 [10] = assay: Antiinvasion activity in human MDA-MB-231 cells reduction of cell assessed as inhibition of FBS-induced cell invaded to lower surface at 2 uM after 24 hrs; format: functional; details: MDA-MB-231, 24 h
MDA-MB-231 [11] = assay: Down-regulation of uPAR mRNA expression in human MDA-MB-231 cells at 2 to 10 uM after 24 hrs by RT-PCR analysis; format: functional, cell-based
MDA-MB-231 [12] = assay: Inhibition of cell migration in human MDA-MB-231 cells assessed as reduction of cell migrated into scratched area at 10 uM after 24 hrs by wound healing assay; format: functional; details: MDA-MB-231, 24 h
[13] = biological target: Ras-related C3 botulinum toxin substrate 1 (Homo sapiens) (UniProt P63000); assay: Inhibition of Rac1 in human MDA-MB-231 cells at 2 uM after 30 mins by G-LISA activity assay; format: cell-based
MDA-MB-231 [14] = assay: Antiinvasion activity in human MDA-MB-231 cells reduction of cell assessed as inhibition of FBS-induced cell invaded to lower surface at 10 uM after 24 hrs; format: functional; details: MDA-MB-231, 24 h
Homo sapiens = organism: Homo sapiens; assay: Inhibition of DNA binding of NF-kappaB (unknown origin) on uPA promoter at 10 uM by ChIP assay
[15] = biological target: Ras-related C3 botulinum toxin substrate 1 (Homo sapiens) (UniProt P63000); assay: Inhibition of Rac1 in human MDA-MB-231 cells at 10 uM after 30 mins by G-LISA activity assay; format: cell-based
[16] = biological target: Urokinase-type plasminogen activator (Homo sapiens) (UniProt P00749); assay: Inhibition of uPA activity in human MDA-MB-231 cells at 5 uM; format: cell-based; design: scale not given: the % may be the effect or the level left
[17] = biological target: Urokinase-type plasminogen activator (Homo sapiens) (UniProt P00749); assay: Inhibition of uPA activity in human MDA-MB-231 cells at 10 uM; format: cell-based; design: scale not given: the % may be the effect or the level left

COc1cc(/C=C/c2ccc(O)cc2)cc(OC)c1 [PTEROSTILBENE]
viability at 24 h, 40 µM [1]: 40% | inhibition at 5 µM (MDA-MB-231 [2]): 59% | Activity (MDA-MB-231 [3]): Dose-dependent effect | inhibition at 2 µM (MDA-MB-231 [4]): 25% | inhibition [5]: Dose-dependent effect | inhibition (MDA-MB-231 [6]): Dose-dependent effect | Activity (MDA-MB-231 [7]): Non-toxic | inhibition at 5 µM (MDA-MB-231 [8]): 29% | inhibition [9]: 22% | inhibition at 2 µM (MDA-MB-231 [10]): 20% | Activity (MDA-MB-231 [11]): inactive | inhibition at 10 µM (MDA-MB-231 [12]): 76% | inhibition [13]: 14% | inhibition at 10 µM (MDA-MB-231 [14]): 38% | inhibition (Homo sapiens): Active | inhibition [15]: 27% | Activity [16]: 25% | Activity [17]: 61%
